Source: PMC7504725, “Automated Synthesis of Fluorine-18 Labeled CXCR4 Ligand via the Conjugation with Nicotinic Acid N-Hydroxysuccinimide Ester (6-[^18F]SFPy)” (Molecules, 2020)
Like-named read-outs stand apart in the source and are kept apart here.

Experiments:
red blood cells (RBCs) = settings: blocked by non-radioactive standard 4-FBz-T140 peptide; ref [31]; cited from earlier work
Text: (§1) However, due to the complex and time-consuming radiolabeling procedure, they developed another analog, (Al[^18F]NOTA-T140), using the Al-F me ...

CXCR4 positive tumors = settings: PET, xenograft mouse model, RBC binding blocked with non-radioactive 4-FBz-T140, ref [31]; cited from earlier work
Text: as §1

[1] = Hydrolysis of 6-[^18F]SFPy to 6-[^18F]fluoronicotinic acid (HPLC); assay type: physicochemical; settings: room temperature, 4h post radiolabeling; HPLC method B (Vydac C-4), radio detector
Description: Figure 2 HPLC analysis (method B) of 6-[^18F]SFPy (A) Crude reaction mixture; (B) Crude reaction mixture co-injected with the non-radioactive standard; (C) Pure; (D) Pure co-injected with the non-radioactive standard; (E) After 4h of labeling at room temperature co-injected with the non-radioactive standard, 6-fluoronicotinic acid. Solid line, in-line radio detector; dotted line, UV detector at 254 nm. Retention time (min): 6-[^18F]SFPy, 4.0; compound 4, 4.1; 6-[^18F]fluoronicotinic acid, 2.8.
Method B (HPLC conditions for analysis): Vydac C-4 (2) column (4.6 × 150 mm, 5 µ), mobile phase: 15–22% B in 10 min; B = acetonitrile (0.1% TFA), A = Water (0.1% TFA), flow rate of 1 mL/min; tR = ~8 min.

CXCR4 = tested on: CXCR4; design: method as in earlier work; settings: previously reported, ref [24],[31],[48],[49],[50],[51] (collective), cited from earlier work
HIV = settings: 4-fluorobenzoyl group introduced on T140-based pharmacophore; ref [30]; cited from earlier work
Text: Numerous truncated peptide analogs that mimic the function of CXCL12 have been reported. Tamamura et al. described the synthesis of novel 14-amino acid peptide inhibitors (T134, T140) based on the structure of their previously reported 18-amino acid peptide, T22, for inhibitory activity against HIV-1 entry. […] However, due to the complex and time-consuming radiolabeling procedure, they developed another analog, (Al[^18F]NOTA-T140), using the Al-F me ...

4-[^18F]fluorobenzoyl-TN14003 [4-[^18F]FBz-T140]
binding to red blood cells (in words) (red blood cells (RBCs)): elevated binding | tumor-to-background ratios (in words) (CXCR4 positive tumors): high tumor-to-background ratios

O=C(ON1C(=O)CCC1=O)c1ccc([18F])nc1 [6-[^18F]SFPy]
conversion to 6-[^18F]fluoronicotinic acid (slow hydrolysis) [1]: 15%

4-fluorobenzoyl-TN14003 [4-FBz-T140]
IC50 (CXCR4; first of two values printed for this analog): 0.99 nM | IC50 (CXCR4; second of two values printed for this analog): 1.75 nM | anti-HIV activity (in words) (HIV): enhancement of anti-HIV activity
